Results taken from patent US6673769B2, “Lanthionine bridged peptides” (priority 1991, dated 2004).
Like-named read-outs stand apart in the source and are kept apart here.

What was measured:
[1] = Enzymatic degradation of enkephalin analogs (half-life)
SSTR4 receptor = assay: Inhibition of radioligand binding to cloned somatostatin receptor SSTR4; conditions: for IC50: cloned receptor, radioligand binding, read-out: SSTR4 receptor binding constant IC50
SSTR2 receptor = assay: Inhibition of radioligand binding to cloned somatostatin receptor SSTR2; conditions: for IC50: cloned receptor, radioligand binding, read-out: SSTR2 receptor binding constant IC50
MVD (δ-receptor) = target: T1, MVD (δ-receptor) (Mus musculus, UniProt P32300); assay: cell-based
T1 construct: The vas is then mounted under 0.5 g tension in a 5 ml organ bath; from tissue; host or cells: mouse vas deferens (Swiss Webster)
T1 sequence (P32300 whole entry): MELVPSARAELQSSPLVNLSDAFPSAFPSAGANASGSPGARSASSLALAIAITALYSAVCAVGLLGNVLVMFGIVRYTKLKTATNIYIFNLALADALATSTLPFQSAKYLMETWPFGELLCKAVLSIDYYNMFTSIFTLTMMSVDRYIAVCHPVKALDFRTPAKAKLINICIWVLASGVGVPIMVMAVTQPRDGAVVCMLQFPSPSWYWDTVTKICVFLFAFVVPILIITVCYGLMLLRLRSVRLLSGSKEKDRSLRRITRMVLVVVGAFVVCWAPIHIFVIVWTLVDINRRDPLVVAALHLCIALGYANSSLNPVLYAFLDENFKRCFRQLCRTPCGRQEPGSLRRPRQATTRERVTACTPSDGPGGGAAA

δ receptor = δ receptor (Homo sapiens, UniProt P41143); assay: δ-Binding, replacement of 3H-naltrindole
Sequence of δ receptor (P41143 whole entry): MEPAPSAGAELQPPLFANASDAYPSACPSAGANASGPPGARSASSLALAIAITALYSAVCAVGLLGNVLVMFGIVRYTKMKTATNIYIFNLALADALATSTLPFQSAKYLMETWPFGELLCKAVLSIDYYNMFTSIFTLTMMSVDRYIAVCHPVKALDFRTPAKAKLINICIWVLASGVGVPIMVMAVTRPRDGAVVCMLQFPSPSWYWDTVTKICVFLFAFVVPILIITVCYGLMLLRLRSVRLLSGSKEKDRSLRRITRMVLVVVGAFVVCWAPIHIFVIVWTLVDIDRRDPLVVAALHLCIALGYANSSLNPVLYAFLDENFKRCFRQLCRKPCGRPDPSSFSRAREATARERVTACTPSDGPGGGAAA

[2] = inhibition of electrically evoked twitch of mouse vas deferens, read-out: MVD IC50

Molecule | IC50 (SSTR4 receptor) | IC50 (SSTR2 receptor) | other results
NC(=O)[C@@H]1CSSC[C@@H](NC(=O)[C@@H](N)Cc2ccc(O)cc2)C(=O)NCC(=O)N[C@@H](Cc2ccccc2)C(=O)N1 [Disulfide-enkephalin, reference compound] |  |  | half-life [1]: 5.53 h
C[C@H](N)C(=O)NCC(=O)N[C@H]1CSSC[C@@H](C(=O)O)NC(=O)[C@H](CO)NC(=O)[C@H]([C@@H](C)O)NC(=O)[C@H](Cc2ccccc2)NC(=O)[C@H]([C@@H](C)O)NC(=O)[C@H](CCCCN)NC(=O)[C@H](Cc2c[nH]c3ccccc23)NC(=O)[C@H](Cc2ccccc2)NC(=O)[C@H](Cc2ccccc2)NC(=O)[C@H](CC(N)=O)NC(=O)[C@H](CCCCN)NC1=O [Somatostatin-14, reference compound] | 0.86 nM | 0.28 nM | 
N[C@@H](Cc1ccc(O)cc1)C(=O)N[C@@H]1CSC[C@@H](C(=O)O)NC(=O)[C@H](Cc2ccccc2)NC(=O)CNC1=O [Tyr-c[D-AlaL-Gly-Phe-L-AlaL]-OH] |  |  | IC50 (MVD (δ-receptor)): 0.16 nM; IC50 (δ receptor): 1 nM
NC(=O)[C@@H]1CSC[C@@H](NC(=O)[C@@H](N)Cc2ccc(O)cc2)C(=O)NCC(=O)N[C@@H](Cc2ccccc2)C(=O)N1 [Tyr-c[D-AlaL-Gly-Phe-L-AlaL]-NH2] |  |  | IC50 (MVD (δ-receptor); [2]): 0.54 nM; IC50 (δ receptor): 7 nM
H-D-Phe-c[AlaLPhe-D-Trp-Lys-Thr-AlaL]-Thr-ol | 1 nM | 5 nM | 
c[AlaL3, AlaL14]-Somatostatin-14 |  | 0.3 nM | affinity/potency on SSTR2, in words (SSTR2 receptor): same binding affinity
H-D-Phe-c[AlaLPhe-D-Trp-Lys-Thr-AlaL]-OH | 500 nM |  | 
H-D-Phe-c[AlaLPhe-D-Trp-Lys-Thr-AlaL]-Thr-NH2 | 0.5 nM | 10 nM | selectivity for SSTR4 (SSTR2/SSTR4 IC50) compared with the octapeptide alcohols (SSTR4 receptor): four times
NC(=O)[C@@H]1CSC[C@@H](NC(=O)[C@@H](N)Cc2ccc(O)cc2)C(=O)NCC(=O)N[C@@H](Cc2ccccc2)C(=O)N1 [Lanthionine-enkephalin] |  |  | half-life [1]: 20.4 h
Sandostatin [reference compound] | 0.57 nM | 2.4 nM | 
NC(=O)[C@H]1CSC[C@@H](NC(=O)[C@@H](N)Cc2ccc(O)cc2)C(=O)NCC(=O)N[C@@H](Cc2ccccc2)C(=O)N1 [Tyr-c[D-AlaL-Gly-Phe-D-AlaL]-NH2] |  |  | IC50 (MVD (δ-receptor); [2]): 1.67 nM
